# Test results as given in article PMC11189516, “Structure-guided conversion from an anaplastic lymphoma kinase inhibitor into Plasmodium lysyl-tRNA synthetase selective inhibitors” (Communications Biology, 2024).
# “And” between values parts separate entries of the source, which are not always exact repeats. Equal values may be shown once. Read-outs that look alike come from different tables or passages of the source.
# Experiments:
# PfLysRS [1] = biological target: T1, PfLysRS (Plasmodium falciparum, UniProt Q8IDJ8); experiment: Thermal shift assay; type: binding
# T1 construct: PfLysRS (77–583) was constructed in the vector pET20b, with a C-terminal 6×His tag; 6xHis (C); made in house; host or cells: E. coli BL21 (DE3)
# T1 sequence (Q8IDJ8 entry or part of it): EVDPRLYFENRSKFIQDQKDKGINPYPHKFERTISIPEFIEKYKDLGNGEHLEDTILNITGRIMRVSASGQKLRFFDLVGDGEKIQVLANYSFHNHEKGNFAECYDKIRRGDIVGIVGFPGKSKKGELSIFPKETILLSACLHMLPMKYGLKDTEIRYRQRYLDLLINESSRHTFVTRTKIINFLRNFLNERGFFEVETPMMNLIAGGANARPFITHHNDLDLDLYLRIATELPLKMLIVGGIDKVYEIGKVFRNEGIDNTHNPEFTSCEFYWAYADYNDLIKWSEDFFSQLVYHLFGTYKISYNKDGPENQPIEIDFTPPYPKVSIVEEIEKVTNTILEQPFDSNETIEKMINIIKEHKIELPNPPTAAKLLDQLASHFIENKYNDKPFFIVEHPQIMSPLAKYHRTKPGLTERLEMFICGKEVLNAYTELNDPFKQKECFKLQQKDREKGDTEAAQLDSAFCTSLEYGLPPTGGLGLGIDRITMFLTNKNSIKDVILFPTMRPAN
# Protocol: PfLysRS protein was prepared at 10 μM concentration in a buffer containing 20 mM Tris pH 8.0, 200 mM NaCl, 500 μM L-lysine, and 200 μM Compound. Aliquots (18 µL) were added to a 96-well PCR plate and incubated at ambient temperature for 10 min. SYPRO Orange dye (Sigma) was diluted in the assay buffer containing 20 mM Tris pH 8.0 and 200 mM NaCl to a 40× concentration, and 2 µL of the 40× dye solution was added to the PCR plate to bring the final assay volume to 20 µL. After complete mixing, the final solutions were heated from 25 to 90 °C at a rate of 0.015 °C per sec, and fluorescence signals were monitored by QuantStudio 3 (Applied Biosystems by Thermo Fisher Scientific).
# PfLysRS [2] = biological target: T1, PfLysRS; experiment: ATP hydrolysis assay (Kinase-Glo) on PfLysRS; type: biochemical
# Protocol: (§1) The ATP hydrolysis assays were based on Kinase-Glo luminescent Kit (Promega). The experiment was carried out in Corning 384-well white flat bottom microplates. The buffer in the reaction contains 25 mM Hepes pH 7.4, 140 mM NaCl, 40 mM MgCl2, 30 mM KCl, 1 mM TCEP, 0.1 mg·mL^−1 BSA, and 0.004% Tween-20. The compounds were diluted to different concentrations with a 5-fold gradient.
# (§2) For LysRS assays, DMSO was added into negative control wells and L-lysine was removed in positive control wells. 100 nM LysRS in 2.5 μL Hepes buffer was mixed with compounds and incubated for 10 min. Then 5 μL substrate mixture (2 μM ATP, 10 μM L-lysine and 31 nM pyrophosphatase) was added to start the reaction at 37 °C and incubated for 6 h.
# (§3) When the reaction reaches the planned time, 10 μL diluted Kinase-Glo reagent (1/50 diluted with a buffer containing 50 mM Tris pH 7.5 and 5% glycerol) was added and incubated for 15 min. Luminescence was measured on the Magellan plate reader (Tecan) and nonlinear regression was performed with Prism (GraphPad).
# [3] = Solubility noted in the cytotoxicity assay; type: physicochemical; settings: highest concentration limited to 100 μM in cell medium
# Protocol: Cell viability was analyzed by Cell Counting Kit-8 (CCK8, ApexBio) according to the manufacturer’s protocols. Cells were seeded and cultured at a density of 2.5 × 10^3 cells per well in 100 μL medium in 96-well microplates (Corning). Then, the cells were treated with different concentrations of compound (0, 1 μM, 3 μM, 10 μM, 100 μM, 300 μM). […] After treatment for 72 h, 10 μL of CCK-8 reagent was added to each well and then cultured for 4 h. All experiments were performed in pentaplicate. The absorbance was analyzed at 450 nm using a microplate reader (Tecan) using medium without cells as blanks. Data was processed using GraphPad Prism 9.
# PfLysRS [4] = biological target: T1, PfLysRS; experiment: Surface plasmon resonance (SPR) assay; type: binding; settings: immobilized PfLysRS
# Protocol: PfLysRS was chemically immobilized on a Biacore CM5 sensorchip (immobilization level ~20000 resonance unit/RU) at pH 5.0 according to the immobilization kit (GE Healthcare). PfLysRS (1.7 nM) was captured for 90 s at a flow of 30 µL·min^−1. Affnity between PfLysRS and compounds was measured by SPR on a Biacore 8 K (GE Healthcare) at 25 °C with a running buffer (0.02 M phosphate buffer pH 7.4, 2.7 mM KCl, 0.137 M NaCl, 0.05% Tween 20, with 1 mM L-lysine). The association time was 90 s, the dissociation time was 120 s, and the flowrate was 30 µL·min^−1. Kinetic evaluation of the interaction between LysRS and compounds was performed by global fitting of the data to a 1:1 interaction model using Biacore Evaluation Software 3.1 (GE Healthcare).
# [5] = test system: erythrocytic-stage P. falciparum 3D7 parasites; experiment: In vitro Plasmodium growth assay; type: cell-based, Plasmodium falciparum
# Protocol: Parasites were cultured in human O+ erythrocytes according to standard procedures. To prepare the >80% ring stage parasites, asynchronous cultures of parasites were pretreated with 5% sorbitol, and P. falciparum strain 3D7 at the mid-ring stage (6–10 h post-invasion) was used to test antimalarial effects in 96-well plates. Parasites were incubated in a 96-well plate with compound containing 1% parasitemia and, 2% hematocrit for a total volume of 200 μL. […] A relevant DMSO concentration was used as a negative control, and cultured erythrocytes without Plasmodium served as a positive control. The parasites were allowed to grow for 72 h at 37 °C with 5% CO2, 5% O2, and 90% N2. After 72 h, 100 μL of lysis buffer (0.12 mg·mL^−1 Saponin, 0.12% Triton X-100, 30 mM Tris-HCl pH 8.0, and 7.5 mM EDTA) with 5× SYBR Green I (Invitrogen; supplied in 10000× concentration) was added to each well of the plate. The plates were then incubated for 2 h in the dark prior to reading the fluorescence signal at 485 nm excitation and 535 nm emission. The percentage of inhibition was calculated by (NC-fluorescence) × 100/(NC-PC).
# HsLysRS = biological target: T2, HsLysRS (Homo sapiens, UniProt Q15046); experiment: ATP hydrolysis assay (Kinase-Glo) on HsLysRS; type: biochemical
# T2 construct: HsLysRS (70–581) was constructed in the vector pET20b with a C-terminal 6×His tag; 6xHis (C); made in house; host or cells: E. coli (pET20b; 'purified similarly' to PfLysRS, which was expressed in BL21 (DE3))
# T2 sequence (Q15046 70-581): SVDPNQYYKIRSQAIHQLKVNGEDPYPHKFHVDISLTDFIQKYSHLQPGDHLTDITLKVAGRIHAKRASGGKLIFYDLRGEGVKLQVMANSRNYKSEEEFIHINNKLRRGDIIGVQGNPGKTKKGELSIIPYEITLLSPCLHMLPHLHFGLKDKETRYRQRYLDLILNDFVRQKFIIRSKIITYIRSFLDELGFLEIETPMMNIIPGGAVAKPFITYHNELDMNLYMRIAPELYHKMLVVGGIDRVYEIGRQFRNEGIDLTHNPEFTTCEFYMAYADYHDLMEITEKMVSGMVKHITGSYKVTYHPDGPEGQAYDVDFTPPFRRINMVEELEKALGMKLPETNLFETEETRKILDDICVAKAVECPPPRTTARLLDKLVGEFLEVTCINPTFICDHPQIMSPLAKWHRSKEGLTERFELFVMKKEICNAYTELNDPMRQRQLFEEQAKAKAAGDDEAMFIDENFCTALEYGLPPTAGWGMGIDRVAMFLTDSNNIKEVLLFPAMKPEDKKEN
# Protocol: as §1, §2, §3
compound,measurement,setting,value
COc1ccccc1Nc1ncnc(Nc2ccccc2S(=O)(=O)C(C)C)n1 [Compound 38],"Tm of PfLysRS, Average",PfLysRS [1]; +Lysine,52.704 °C
same,"Tm of PfLysRS, single repeat",PfLysRS [1]; +Lysine,52.703 °C and 52.673 °C and 52.642 °C and 52.796 °C
same,"Tm of PfLysRS, Average",PfLysRS [1]; -Lysine,50.586 °C
same,"Tm of PfLysRS, single repeat",PfLysRS [1]; -Lysine,50.911 °C and 50.756 °C and 50.045 °C and 50.632 °C
same,ΔTm at 200 µM,PfLysRS [1]; in the absence of L-lysine,7.6 °C
same,ΔTm at 200 µM,PfLysRS [1]; in the presence of L-lysine,~9 °C
same,HillSlope (best-fit value),PfLysRS [2]; PfLysRS,0.6107
same,LogIC50 (best-fit value),"PfLysRS [2]; PfLysRS, log of nM",2.959
same,IC50,"PfLysRS [2]; PfLysRS, source data, read-out: IC50 (best-fit value)",0.91 µM
same,IC50,PfLysRS [2]; read-out: IC50 against PfLysRS,0.91 µM
same,solubility,[3],poor solubility
same,koff,PfLysRS [4],0.0137 s⁻¹
same,kon,PfLysRS [4],218000 M/s
same,Kd,"PfLysRS [4]; 1 mM L-lysine in running buffer, read-out: dissociation constant (KD)",0.0628 µM
same,% Inhibition,"[5]; P. falciparum 3D7, Log(Concentration)/nM 2.290, single repeats",0.5244% and -0.5244%
same,% Inhibition,"[5]; P. falciparum 3D7, Log(Concentration)/nM 2.592, single repeats",0.1049% and 1.993%
same,% Inhibition,"[5]; P. falciparum 3D7, Log(Concentration)/nM 2.893, single repeats",5.139% and 2.098%
same,% Inhibition,"[5]; P. falciparum 3D7, Log(Concentration)/nM 3.193, single repeats",11.12% and 9.229%
same,% Inhibition,"[5]; P. falciparum 3D7, Log(Concentration)/nM 3.496, single repeats",30.2% and 31.57%
same,% Inhibition,"[5]; P. falciparum 3D7, Log(Concentration)/nM 3.796, single repeats",64.29% and 65.65%
same,% Inhibition,"[5]; P. falciparum 3D7, Log(Concentration)/nM 4.097, single repeats",93.45% and 91.87%
same,% Inhibition,"[5]; P. falciparum 3D7, Log(Concentration)/nM 4.398, single repeats",99.84% and 98.9%
same,% Inhibition,"[5]; P. falciparum 3D7, Log(Concentration)/nM 4.699, single repeats",100.4% and 99.63%
same,% Inhibition,"[5]; P. falciparum 3D7, Log(Concentration)/nM 5.000, single repeats",98.16% and 95.65%
same,HillSlope (best-fit value),[5]; Plasmodium falciparum 3D7,2.23
same,LogIC50 (best-fit value),"[5]; Plasmodium falciparum 3D7, log of nM",3.663
same,IC50,"[5]; Plasmodium falciparum 3D7, source data, read-out: IC50 (best-fit value)",4.61 µM
same,EC50,"[5]; Plasmodium falciparum, 3D7, 72 h",4.61 ± 0.12 µM
same,HillSlope (best-fit value),HsLysRS; HsLysRS,2.263
same,% Inhibition,"HsLysRS; HsLysRS, Log(Concentration)/nM 2.505, single repeats",4.732% and 9.196% and 7.614%
same,% Inhibition,"HsLysRS; HsLysRS, Log(Concentration)/nM 3.204, single repeats",10.26% and 9.294% and 11.16%
same,% Inhibition,"HsLysRS; HsLysRS, Log(Concentration)/nM 3.903, single repeats",5.367% and 4.771% and 4.914%
same,% Inhibition,"HsLysRS; HsLysRS, Log(Concentration)/nM 4.602, single repeats",24.12% and 17.72% and 16.76%
same,% Inhibition,"HsLysRS; HsLysRS, Log(Concentration)/nM 5.301, single repeats",34.85% and 34.96% and 31.62%
same,% Inhibition,"HsLysRS; HsLysRS, Log(Concentration)/nM 6.000, single repeats",100.3% and 101% and 91.99%
same,LogIC50 (best-fit value),"HsLysRS; HsLysRS, log of nM",5.476
same,IC50,"HsLysRS; HsLysRS, source data, read-out: IC50 (best-fit value)",299 µM
same,selectivity of PfLysRS over human LysRS (HsLysRS),HsLysRS; in vitro,328 times
same,IC50,HsLysRS; read-out: IC50 against HsLysRS,299 ± 34 µM
